The values below come from PubChem BioAssay (NCI).

Some test systems named below: MALME-3M melanoma; SK-MEL-5 melanoma; A549 NSCLC; KM12 colon; UACC-257 melanoma; CAKI-1 renal; HOP-62 NSCLC; HL-60(TB) leukemia; NCI-H522 lung; NCI-H23 lung; OVCAR-3 ovarian; SF-268 CNS; M14 melanoma; HOP-92 NSCLC; HCC-2998 colon; TK-10 renal; U251 CNS; CCRF-CEM leukemia; PC-3 prostate.
Common to all, as to assay: NCI anticancer screen, dose series, 48 h

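Grown in 96-well plates, cells were treated for 48 hours with each compound at five concentrations. Insufficient inhibition: endpoint recorded as highest concentration tested. Definition used: TGI = concentration required for complete inhibition of growth.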 Some results are limits rather than exact numbers.

In the case of `CC1=CC[C@H](C(C)C)C(C(O)[C@@H](C)O[Si](c2ccccc2)(c2ccccc2)C(C)(C)C)C1=O` (stereo partly drawn), the TGI in the assay on MALME-3M melanoma was determined as 52.8 µM; in the assay with SK-MEL-5 melanoma it was 33.7 µM; in the assay on A549 NSCLC it was 38.4 µM; in the assay with KM12 colon, 48.3 µM; in the assay with UACC-257 melanoma, 31.5 µM; in the assay with CAKI-1 renal, 36.2 µM. The TGI in the assay with HOP-62 NSCLC was found to be 47.6 µM; in the assay on HL-60(TB) leukemia, 42.6 µM; in the assay with NCI-H522 lung it was 37.6 µM; with NCI-H23 lung, 40.2 µM; in the assay on OVCAR-3 ovarian it was 35.5 µM; in the assay with SF-268 CNS, 54.8 µM. Besides, the TGI with M14 melanoma was found to be 32.6 µM; in the assay with HOP-92 NSCLC, 37.9 µM; in the assay on HCC-2998 colon it was 29 µM; in the assay on TK-10 renal, 31.7 µM; in the assay on U251 CNS, 31.8 µM; in the assay with CCRF-CEM leukemia, 63.8 µM. In the assay on PC-3 prostate, the TGI came out at 33.6 µM.

As for `Cc1cccc(C)c1NC(=O)C(=O)CC(=O)/C=C/c1ccccc1`, the TGI in the assay on MALME-3M melanoma, in the assay on SK-MEL-5 melanoma, in the assay with A549 NSCLC, in the assay with KM12 colon, with UACC-257 melanoma and in the assay on CAKI-1 renal was above 100 µM each time. In addition, the TGI with HOP-62 NSCLC, in the assay on HL-60(TB) leukemia, in the assay on NCI-H522 lung, in the assay on NCI-H23 lung, in the assay on OVCAR-3 ovarian and in the assay on SF-268 CNS was above 100 µM throughout. Further, the TGI with M14 melanoma, in the assay with HOP-92 NSCLC, with HCC-2998 colon, in the assay with TK-10 renal, in the assay on U251 CNS and in the assay with CCRF-CEM leukemia was above 100 µM throughout. For the same compound, the TGI in the assay with PC-3 prostate was above 100 µM.

As to `COc1cc2nc(-c3cccs3)nc(N3CCN(c4ccccc4C(F)(F)F)CC3)c2cc1OC`, the TGI in the assay with MALME-3M melanoma, with SK-MEL-5 melanoma, in the assay with A549 NSCLC, with KM12 colon, in the assay with UACC-257 melanoma and in the assay with CAKI-1 renal was above 100 µM in each case. Also, the TGI with HOP-62 NSCLC, in the assay on HL-60(TB) leukemia, in the assay on NCI-H522 lung, in the assay on NCI-H23 lung, in the assay with OVCAR-3 ovarian and with SF-268 CNS was above 100 µM in each case. The TGI in the assay on M14 melanoma, with HOP-92 NSCLC, in the assay with HCC-2998 colon, in the assay on TK-10 renal, with U251 CNS and in the assay with CCRF-CEM leukemia was above 100 µM each time. The compound also came in with a TGI in the assay on PC-3 prostate above 100 µM.

For the compound `CCn1c(SCC(=O)N/N=C/c2ccccc2)nc2ccccc2c1=O`, the TGI was above 94.6 µM in the assay on MALME-3M melanoma; above 100 µM with SK-MEL-5 melanoma; above 46.4 µM in the assay with A549 NSCLC; above 68.8 µM in the assay on KM12 colon; above 100 µM in the assay on UACC-257 melanoma; 22.4 µM in the assay on CAKI-1 renal. Besides, the TGI in the assay on HOP-62 NSCLC was above 78.3 µM; in the assay with HL-60(TB) leukemia it was above 100 µM; with NCI-H522 lung, 27.5 µM; in the assay on NCI-H23 lung, above 100 µM; in the assay with OVCAR-3 ovarian it was above 100 µM; in the assay with SF-268 CNS, above 70.2 µM. The TGI was above 100 µM in the assay with M14 melanoma; above 79 µM in the assay on HOP-92 NSCLC; above 100 µM in the assay on HCC-2998 colon; above 91 µM in the assay with TK-10 renal; above 70.9 µM in the assay with U251 CNS; above 100 µM with CCRF-CEM leukemia. Besides, the TGI in the assay on PC-3 prostate is above 46.4 µM.

For `Cc1cc(C)nc(NS(=O)(=O)c2ccc(NNc3c4ccccc4nc4c(C(=O)Nc5ccc(S(N)(=O)=O)cc5)cccc34)cc2)n1`, the TGI in the assay on MALME-3M melanoma, with SK-MEL-5 melanoma, in the assay with A549 NSCLC, in the assay on KM12 colon, in the assay on UACC-257 melanoma and in the assay with CAKI-1 renal was above 100 µM each time. Moreover, the TGI with HOP-62 NSCLC was above 100 µM; with HL-60(TB) leukemia, above 100 µM; in the assay with NCI-H522 lung, 85.8 µM; in the assay with NCI-H23 lung, above 100 µM; in the assay with OVCAR-3 ovarian, above 100 µM; with SF-268 CNS it was above 100 µM. The TGI with M14 melanoma was above 100 µM; in the assay on HOP-92 NSCLC, above 100 µM; in the assay on HCC-2998 colon, 84.3 µM; in the assay on TK-10 renal it was above 100 µM; in the assay with U251 CNS, 70.3 µM; in the assay on CCRF-CEM leukemia, 83.6 µM. Besides, the TGI in the assay on PC-3 prostate amounted to 32.9 µM.

Turning to `COc1ccc(-c2c3c(cc4cc5c(cc24)OCO5)C(=O)OC3)cc1OC`, the TGI was 2.92 µM in the assay on MALME-3M melanoma; 0.68 µM with SK-MEL-5 melanoma; above 100 µM in the assay with A549 NSCLC; above 36 µM in the assay on KM12 colon; 5.05 µM in the assay on UACC-257 melanoma; above 63.4 µM with CAKI-1 renal. The TGI with HOP-62 NSCLC was 7.16 µM; in the assay with HL-60(TB) leukemia, above 31.8 µM; in the assay with NCI-H522 lung, 5.95 µM; in the assay with NCI-H23 lung, 26.5 µM; with OVCAR-3 ovarian it was 18.8 µM; in the assay with SF-268 CNS, above 48 µM. The TGI was 1.16 µM with M14 melanoma; above 23.4 µM in the assay with HOP-92 NSCLC; 13.9 µM in the assay on HCC-2998 colon; above 100 µM in the assay with TK-10 renal; 22 µM with U251 CNS; above 52.1 µM in the assay on CCRF-CEM leukemia. The compound also came in with a TGI in the assay with PC-3 prostate of 49.7 µM.

For the compound `CN(C)CCCn1c(Cc2ccc(Cl)cc2)nc2cc(C(F)(F)F)ccc21`, the TGI in the assay with MALME-3M melanoma is 24 µM; with SK-MEL-5 melanoma it was 32.5 µM; in the assay with A549 NSCLC, 32.8 µM; in the assay on KM12 colon, 28.1 µM; with UACC-257 melanoma, 30.1 µM; with CAKI-1 renal it was 27.3 µM. Besides, the TGI came out at 28.8 µM in the assay on HOP-62 NSCLC; 61.9 µM with HL-60(TB) leukemia; 28.1 µM in the assay with NCI-H522 lung; 31.4 µM in the assay on NCI-H23 lung; 27.6 µM in the assay with OVCAR-3 ovarian; 29.1 µM in the assay with SF-268 CNS. Also, the TGI with M14 melanoma was 25.6 µM; in the assay on HOP-92 NSCLC, 22.9 µM; in the assay with HCC-2998 colon it was 3.85 µM; in the assay on TK-10 renal, 29.6 µM; with U251 CNS it was 28.6 µM; in the assay with CCRF-CEM leukemia, above 43.7 µM. Moreover, the TGI with PC-3 prostate turned out to be 29 µM.
